Results reported in patent US20220280661A1, “GLUCOCORTICOID RECEPTOR RADIOLIGANDS AND METHODS FOR THEIR PREPARATION AND USE” (The Regents of the University of California, priority 2019, published 2022).
Like-named read-outs stand apart in the source and are kept apart here.

Target: T1, GR (Homo sapiens, UniProt P04150)
T1 construct: evaluated using ^3H-ligand displacement assays on cells; endogenous in cells; host or cells: DU145
T1 sequence (P04150 1-777): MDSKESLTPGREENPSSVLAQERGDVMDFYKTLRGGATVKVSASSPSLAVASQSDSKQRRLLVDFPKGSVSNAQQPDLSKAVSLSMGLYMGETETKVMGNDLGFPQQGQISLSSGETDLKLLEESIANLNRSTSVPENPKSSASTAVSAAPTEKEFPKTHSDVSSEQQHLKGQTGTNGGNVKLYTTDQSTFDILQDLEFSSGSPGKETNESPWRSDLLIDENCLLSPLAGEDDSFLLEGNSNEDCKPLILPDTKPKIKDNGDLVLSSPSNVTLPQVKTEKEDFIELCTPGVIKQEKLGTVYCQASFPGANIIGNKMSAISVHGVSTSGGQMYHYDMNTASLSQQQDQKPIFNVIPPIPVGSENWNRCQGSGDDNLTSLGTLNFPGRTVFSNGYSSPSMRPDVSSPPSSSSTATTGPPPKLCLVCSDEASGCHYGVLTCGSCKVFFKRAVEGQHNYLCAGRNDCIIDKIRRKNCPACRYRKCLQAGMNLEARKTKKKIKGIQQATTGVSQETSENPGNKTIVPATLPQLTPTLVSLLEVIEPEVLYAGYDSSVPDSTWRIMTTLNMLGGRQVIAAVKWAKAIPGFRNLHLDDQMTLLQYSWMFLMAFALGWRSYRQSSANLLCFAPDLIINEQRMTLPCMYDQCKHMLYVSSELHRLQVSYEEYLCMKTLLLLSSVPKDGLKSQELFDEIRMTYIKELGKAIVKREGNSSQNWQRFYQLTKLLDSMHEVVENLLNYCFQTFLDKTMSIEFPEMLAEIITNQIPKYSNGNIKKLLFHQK
Test: 3H-ligand displacement assay on cells, GR (DU145)
Assay type: binding
Details: for selectivity for GR over other subfamily 3 nuclear hormone receptors: relative affinity
Description: The affinity of YJH08 for GR and the other type 1 subfamily 3 nuclear hormone receptors was evaluated using ^3H-ligand displacement assays on cells. The Kd for subfamily 3 class C nuclear hormone receptors was determined on cells by displacing ^3H-steroidal agonists for the respective receptor. […] The Kd was determined using the following cell lines: DU145 (GR), LNCaP-AR (AR), MCF7 (PR, ER), and HEK293 transiently overexpressing full length human MR.
The cold ligands and ^3H-steroids were co-incubated on cells in PBS at room temperature for one hour. Following incubation, the cells were washed twice with ice cold PBS and the unbound activity was retained for analysis. The cells were lysed with 1 mL of 1M NaOH and collected. Bound and unbound fractions were counted in a liquid scintillation counter and expressed as a percentage of the total activity added per equal relative number of cells. […] These experiments were performed at three concentrations of experimental ligand (1 pM, 100 nM and 10 μM), and a linear extrapolation was used to subtract the non-specific component of binding from each treatment condition. The specific binding component was plotted against the log of the competing ligand and curve fit using a non-linear regression algorithm with PRISM software.

## COc1cccc2c1-c1ccc3c(c1C(Cc1ccc([18F])cc1)O2)C(C)=CC(C)(C)N3 (racemic) [[18F]-YJH08, [^18F]-5-(4-fluorobenzyl)-10-methoxy-2,2,4-trimethyl-2,5-dihydro-1H-chromeno[3,4-f]quinoline]
In words
  affinity for GR: sub nM
  selectivity for GR over other subfamily 3 nuclear hormone receptors: at least 100 fold

## COc1cccc2c1-c1ccc3c(c1C(Cc1ccc(F)cc1)O2)C(C)=CC(C)(C)N3 (racemic) [YJH08, 5-(4-fluorobenzyl)-10-methoxy-2,2,4-trimethyl-2,5-dihydro-1H-chromeno[3,4-f]quinoline]
  fold more potent than the agonist dexamethasone (GR): about 10 fold
  selectivity for GR over other subfamily 3 nuclear hormone receptors: at least 100 fold
DU145 cells, 3H-dexamethasone, Reference = dexamethasone, read-out: Kd GR
  Kd: 0.401 nM
read-out: Kd for GR
  Kd: ~0.4 nM
